For one data set, the target named is T1, Aβ(1-42) (Homo sapiens, UniProt P05067).
T1 construct: Synthetic Aβ(1-42) and (Gln^22, Asn^23)-Amyloid β-Protein (1-40) (D/I Aβ) with >95% purity were purchased; purchased Bachem (Bubendorf, Switzerland); host or cells: chemical synthesis
Briefly: SPR, Aβ(1-42) immobilized, D-peptide as analyte. The data set is classed as binding. Conditions: SPR Biacore T200, Aβ(1-42) immobilized on CM-5 chip by amine coupling, D-peptide analyte 0.625-20 µM, multicycle, 10 mM HEPES + 50 mM NaCl pH 7.4, 25 °C, steady-state Langmuir 1:1 fit (Fig. 1a). As to the method: The dissociation constant (KD) of RD2D3 and cRD2D3 binding to Aβ(1-42) and D/I Aβ was determined by SPR spectroscopy using a Biacore T200 instrument (Biacore, GE Healthcare, Uppsala, Sweden). Aβ(1-42) or D/I Aβ was used as the ligand, while RD2D3 and cRD2D3 were used as the analyte or vice versa.
By using Aβ(1-42) or D/I Aβ as a ligand, it was immobilized onto a series S CM-5 sensor chip (GE Healthcare, Uppsala, Sweden) by amine coupling. In short, the flow cells were activated by a mixture of 50 mM N-hydroxysuccinimide (NHS) and 16.1 mM N-Ethyl-N’-(dimethylaminopropyl)carbodiimide (EDC) (XanTec, Düsseldorf, Germany) for 7 min. Aβ(1-42) or D/I Aβ were dissolved to a final concentration of 50 µg/mL in 10 mM sodium acetate pH 5 (AppliChem, Darmstadt, Germany) and injected over one of the activated flow cells to a final signal of 1700 RU. After the immobilization, the ligand and reference flow cells were quenched by injecting 1 M ethanolamine pH 8.5 (XanTec, Düsseldorf, Germany) for 7 min. […] The peptides were diluted in the running buffer to the following concentrations: 20 µM, 10 µM, 5 µM, 2.5 µM, 1.25 µM and 0.625 µM. All samples were injected over the flow cells for 180 s, followed by a dissociation step of 600 s with running buffer. Regeneration of the sensor chip was accomplished by a 45 s injection of 2 M of guanidinium hydrochloride (AppliChem, Darmstadt, Germany). […]
A general note: Surface plasmon resonance follows binding to a sensor surface in real time, without labels.

Data set [1] in a line: Proteolytic stability in human plasma. The data set is classed as in vitro ADME. As to the method:
(§1) Both compounds have already been extensively studied with respect to their in vivo pharmacokinetic profiles. Here, we performed some additional test to investigate the proteolytic stability of the compounds in simulated gastric (SGF) and intestinal fluid (SIF) and human plasma and human liver microsomes. The experiments were performed as described previously. According to the guidelines of the European Pharmacopoeia 7.0, SGF and SIF were prepared. Plasma was purchased from Biotrend with K3-EDTA as an anticoagulant (Biotrend, Köln, Germany). Human liver microsomes were pooled from different donors and purchased from Sekisui XenoTech (Kansas City, KS, USA). In order to determine whether the compounds RD2D3 and cRD2D3 are stable or would be metabolized, 150 µM of each compound was incubated in triplicate for defined time points slightly shaking at 37 °C in the media described above (SGF and SIF: 4 and 8 h, plasma: 8, 24 and 48 h and microsomes: 8 and 24 h). Incubation was stopped by precipitating the proteins. For this, 3% trichloroacetic acid (w/v) was added to the respective sample under vortexing followed by a centrifugation step (14,000× g at 4 °C for 5 min). For analysis, supernatants containing the compounds were collected. The precipitated media without compound was used as a control and as reference for the quantification served each medium with compound where the reaction was stopped immediately by precipitating the proteins. All samples were analyzed by RP-HPLC as previously described.

For data set [2] the following is noted: cited from earlier work. The source says:
Our society is aging and, with it, the number of diseases of old age, especially dementias, are increasing. Alzheimer’s disease (AD) is a devastating neurodegenerative disorder and the most common form of dementia worldwide. Its clinical symptoms are considered to be disturbances of memory, language, spatial and temporal orientation and cognitive decline. The pathological hallmarks of the disease are characterized by neurodegeneration, intracellular depositions of neurofibrillary tangles and extracellular accumulations of amyloid-β (Aβ) plaques.

A short description of data set [3]: Proteolytic stability in simulated intestinal fluid (SIF). The data set is classed as in vitro ADME. How it is done: as §1
A short description of data set [4]: Proteolytic stability in simulated gastric fluid (SGF). The class given is in vitro ADME. As to the method:
as §1

The next data set addresses T2, D/I Aβ-oligomers (Homo sapiens, UniProt P05067, D694N/E693Q).
T2 construct: (Gln^22, Asn^23)-Amyloid β-Protein (1-40) (D/I Aβ); purchased Bachem (Bubendorf, Switzerland); host or cells: chemical synthesis
Briefly: QIAD assay, D/I Aβ oligomer elimination. The class given is biochemical. The following applies: 40 µM D/I Aβ preincubated 15 min, 10 µM D-peptide, 30 min coincubation, density gradient fractions 4-6, RP-HPLC UV 214 nm, N = 2-5. How it is done:
According to Brener et al., a QIAD assay was performed in order to evaluate the Aβ(1-42) or D/I Aβ oligomer elimination efficacies of RD2D3 and cRD2D3 [18]. In short, 80 µM lyophilized Aβ(1-42) or 40 µM D/I Aβ was preincubated for 2 h or 15 min, respectively, to enrich Aβ-oligomers. Afterwards, either 20 µM RD2D3 or cRD2D3 for Aβ(1-42) or 10 µM RD2D3 or cRD2D3 for D/I Aβ were added to the preincubated solution and coincubated for additional 30 min. Subsequently, the samples were loaded on the top of a density gradient (5–50% (w/v) iodixanol (OptiPrep, Sigma-Aldrich, Darmstadt, Germany)) followed by an ultracentrifugation step (3 h at 4 °C and 259000× g (Optima TL-100, Beckman Coulter, Brea, CA, USA)). Following the ultracentrifugation, 14 fractions (140 µL each) were harvested by upward displacement. Fraction 15 contains the dissolved pellet in 6 M guanidine hydrochloride solution. Top fractions 1–2 contained Aβ-monomers, fractions 4–6 contained the Aβ-oligomers, which are of special interest, and the bottom fractions 11–14 contained high molecular weight (co-)precipitates or aggregated Aβ. Aβ(1-42) or D/I Aβ concentrations of each fraction were determined via analytical RP-HPLC and UV absorbance detection at 214 nm.

Read-outs that look alike come from different tables or passages of the source. Where a SMILES comes first, the peptide text is derived from it. [ ]: non-standard residue; d: D form.

Regarding `CC(C)C[C@H]1NC(=O)[C@@H](CCCNC(=N)N)NC(=O)[C@@H]([C@H](C)O)NC(=O)[C@@H](CCCNC(=N)N)NC(=O)[C@H]2CCCN2C(=O)[C@@H](CCCNC(=N)N)NC(=O)[C@@H](CCCNC(=N)N)NC(=O)[C@@H](CCCNC(=N)N)NC(=O)[C@@H](CCCNC(=N)N)NC(=O)[C@@H](CCCNC(=N)N)NC(=O)[C@@H](CCCNC(=N)N)NC(=O)[C@@H](CC(N)=O)NC(=O)[C@@H](Cc2c[nH]cn2)NC(=O)[C@@H]([C@H](C)O)NC(=O)[C@@H](Cc2c[nH]cn2)NC(=O)[C@@H](CC(C)C)NC(=O)[C@@H]([C@H](C)O)NC(=O)[C@H]2CCCN2C(=O)[C@@H](CCCNC(=N)N)NC(=O)[C@@H](CC(N)=O)NC(=O)[C@@H](CCCNC(=N)N)NC(=O)[C@@H](Cc2c[nH]cn2)NC(=O)[C@@H]([C@H](C)O)NC(=O)[C@@H](Cc2c[nH]cn2)NC1=O` [cRD2D3] (cyclo([dH][dN][dR][dR][dR][dR][dR][dR][dP][dR][dT][dR][dL][dH][dT][dH][dR][dN][dR][dP][dT][dL][dH][dT])), at Aβ(1-42), the Kd (usually the constant that tells how readily two partners part at equilibrium) is 10.4 ± 0.61 µM. The remaining at 8 h, 150 µM was 91.8% in data set [1] (human plasma (K3-EDTA), 150 µM, 37 °C, 8 h, TCA precipitation, RP-HPLC, mean of three independent experiments, read-out: Stability in human plasma, 8 h); 87.2% in data set [3] (simulated intestinal fluid (SIF), simulated intestinal fluid (Eur. Pharmacopoeia 7.0), 150 µM, 37 °C, 8 h, TCA precipitation, RP-HPLC, referenced to immediately stopped sample, mean of three independent experiments, read-out: Stability in SIF, 8 h); 99.7% in data set [4] (simulated gastric fluid (SGF), simulated gastric fluid (Eur. Pharmacopoeia 7.0), 150 µM, 37 °C, 8 h, TCA precipitation, RP-HPLC, referenced to immediately stopped sample, mean of three independent experiments, read-out: Stability in SGF, 8 h). For the same compound, in data set [1] (human plasma (K3-EDTA), 150 µM, 37 °C, 24 h, TCA precipitation, RP-HPLC, mean of three independent experiments, read-out: Stability in human plasma, 24 h), the remaining at 24 h, 150 µM is 93.7%. Further, the remaining at 48 h, 150 µM in data set [1] (human plasma (K3-EDTA), 150 µM, 37 °C, 48 h, TCA precipitation, RP-HPLC, mean of three independent experiments, read-out: Stability in human plasma, 48 h) was determined as 92.4%. Moreover, in data set [2] (C57BL/6 mice, i.v. and i.p. administration), the “Brain concentrations relative to RD2D3” value is listed as “four to five times higher”. Also, the “Terminal half-life (in plasma)” value in data set [2] (C57Bl/6 wild type mice, after i.v. and i.p. administration, ref 17 (b3)) is 58 h. The Oral bioavailability entry in data set [2] is on record as “high oral bioavailability”. Besides, the remaining at 4 h, 150 µM was 96% in data set [3] (simulated intestinal fluid (SIF), simulated intestinal fluid (Eur. Pharmacopoeia 7.0), 150 µM, 37 °C, 4 h, TCA precipitation, RP-HPLC, referenced to immediately stopped sample, mean of three independent experiments, read-out: Stability in SIF, 4 h) and 99.5% in data set [4] (simulated gastric fluid (SGF), simulated gastric fluid (Eur. Pharmacopoeia 7.0), 150 µM, 37 °C, 4 h, TCA precipitation, RP-HPLC, referenced to immediately stopped sample, mean of three independent experiments, read-out: Stability in SGF, 4 h). In addition, the “Elimination of toxic D/I Aβ-oligomers (QIAD)” value on D/I Aβ-oligomers is given as 100%.

Take `CC(C)C[C@@H](NC(=O)[C@@H](CCCNC(=N)N)NC(=O)[C@H](NC(=O)[C@@H](CCCNC(=N)N)NC(=O)[C@H]1CCCN1C(=O)[C@@H](CCCNC(=N)N)NC(=O)[C@@H](CCCNC(=N)N)NC(=O)[C@@H](CCCNC(=N)N)NC(=O)[C@@H](CCCNC(=N)N)NC(=O)[C@@H](CCCNC(=N)N)NC(=O)[C@@H](CCCNC(=N)N)NC(=O)[C@@H](CC(N)=O)NC(=O)[C@@H](Cc1c[nH]cn1)NC(=O)[C@H](NC(=O)[C@@H](Cc1c[nH]cn1)NC(=O)[C@@H](CC(C)C)NC(=O)[C@H](NC(=O)[C@H]1CCCN1)[C@H](C)O)[C@H](C)O)[C@H](C)O)C(=O)N[C@H](Cc1c[nH]cn1)C(=O)N[C@@H](C(=O)N[C@H](Cc1c[nH]cn1)C(=O)N[C@H](CCCNC(=N)N)C(=O)N[C@H](CC(N)=O)C(=O)N[C@H](CCCNC(=N)N)C(N)=O)[C@H](C)O` [RD2D3] (H-[dP][dT][dL][dH][dT][dH][dN][dR][dR][dR][dR][dR][dR][dP][dR][dT][dR][dL][dH][dT][dH][dR][dN][dR]-NH2): the Kd at Aβ(1-42) turned out to be 7.01 ± 0.31 µM. In data set [1] (human, plasma), this compound had a remaining at 8 h, 150 µM of 84.7%; a remaining at 24 h, 150 µM of 91.9%; a remaining at 48 h, 150 µM of 93.7%. The “Terminal half-life (in plasma)” value in data set [2] (mouse, in vivo) was 2.3 h. In data set [3] (simulated intestinal fluid), this compound came in with a remaining at 4 h, 150 µM of 100% and a remaining at 8 h, 150 µM of 93.5%. In data set [4] (simulated gastric fluid), this compound showed a remaining at 4 h, 150 µM of 100% and a remaining at 8 h, 150 µM of 100%. Further, at D/I Aβ-oligomers, the “Elimination of toxic D/I Aβ-oligomers (QIAD)” value was found to be 94%.

The values are drawn from PMC8234218, “In Vitro and In Vivo Efficacies of the Linear and the Cyclic Version of an All-D-Enantiomeric Peptide Developed for the Treatment of Alzheimer’s Disease” (International Journal of Molecular Sciences, 2021).
